Reference: patent US20230027864A1, “COMPOSITIONS AND METHODS FOR DELIVERY OF AGENTS TO IMMUNE CELLS” (ModernaTX, Inc., priority 2018, published 2023)

Assays:
T cells [1] = experiment: LNP association and GFP mRNA expression in T cells of human PBMCs; type: cell-based; conditions: for immune cell delivery potentiating ability in T cells, helper lipid panel: phospholipid component of the LNP, FIG. 32; for immune cell delivery potentiating ability in T cells, amino lipid panel: ionizable lipid component of the LNP, FIG. 30; for delivery and uptake by T cells, only cholesterol as structural lipid: Experiment 2, mean % cells expressing the mRNA relative to positive control (Compound X, β-sitosterol); for immune cell delivery potentiating ability in T cells, sterol panel: structural lipid component of the LNP, FIG. 31
Method: (§1) In a second series of experiments, additional compounds, were tested in the LNPs for their ability to enhance delivery to T cells. For these experiments, the association of the LNP with cells and the expression of mRNA-encoding protein within the transfected cells was assessed at the cell-by-cell level. Peripheral blood mononuclear cells (PBMCs) from human donors were used. PBMCs were predominately T cells (40-60%), B cells (3-15%), and monocytes (15-35%), but also contained small numbers of other cell types. LNPs were incubated with serum or PBS for 30 minutes and then added to the PBMCs. The LNP concentration was 0.050 mg/ml, the LNP volume was 0.1 ml.
(§2) LNPs contained 0.1% Rhodamine-DOPE in addition to the other LNP components to facilitate detection. Thus, the ratios set forth in the tables below include 0.1 for the rhodamine label. For example, 50:10:10:27.9:2:0.1 AL:DSPC:chol:sterol:Cmp 428 indicates 50% amino lipid as the ionizable lipid, 10% DSPC as the phospholipid, 10% cholesterol, 27.9% phytosterol, 2% Compound 428 as the PEG lipid and 0.1% for the rhodamine-DOPE label. To prepare a non-labeled LNP, the same ratios are used except that the 0.1% rhodamine label is omitted and an additional 0.1% of structural lipid (cholesterol or cholesterol/phytosterol blend) is used (e.g., 27.9% becomes 28%).
(§3) Cells were sorted by flow cytometry into subsets based on expression of certain markers: CD3 (T cells), CD20 (B cells), and CD3-, CD20-, CD14+(Monocytes).
(§4) mRNA encoding GFP was used as a model agent to effect expression of an intracellular protein.
(§5) When conducting flow cytometry, the Y-axis was signal from the rhodamine tag on the LNP and the X-axis was the GFP signal showing expression of the protein.
(§6) The “associated” population is any rhodamine+ and/or GFP+ cell and the percent of these cells was calculated by dividing by the total number of cells. The “expression” population is any GFP+ cell and the percent of these cells was calculated by dividing by the total number of cells. The percent of associated cells expressing was obtained by dividing the % expressing cells by the % associated cells.

monocytes = experiment: LNP association and GFP mRNA expression in monocytes of human PBMCs; type: cell-based; conditions: for immune cell delivery potentiating ability in monocytes, helper lipid panel: phospholipid component, FIG. 39; for immune cell delivery potentiating ability in monocytes, amino lipid panel: ionizable lipid component, FIG. 37; for immune cell delivery potentiating ability in monocytes, sterol panel: structural lipid component, FIG. 38
Method: as §1, with “this Example, LNPs were made with various lipid components and at different ratios and” for “a second series of experiments, additional compounds,”, “tested” for “tested in the LNPs”, “transfect monocytes in vitro.” for “enhance delivery to T cells.”, “(40-60%)” for “(40-60%),”
as §2, §3, §4, §5, §6

T cells [2] = experiment: Additional LNPs: T cell transfection in vitro, mOX40L mRNA, labeled LNPs; type: cell-based, human; conditions: for immune cell delivery potentiating ability in T cells, amino lipid panel: ionizable lipid component, FIG. 43
Method: In this Example, additional LNPs comprising various lipid components and at different ratios were made and tested for their ability to transfect T cells in vitro. Transfection was performed as in Example 5 using LNPs encapsulating an mRNA encoding mouse OX40L. LNPs were labeled and the results were determined for the mean % cells with LNPs associated, the mean % cells expressing mOX40L and the % of LNP-associated cells expressing mOX40L, as described hereinbefore.

splenic CD3+ T cells = experiment: Transfection of splenic T cells in vivo in mice; conditions: for capability to transfect splenic CD3+ T cells in vivo: as ionizable lipid, 0.5 mg/kg i.v., 24 hours, FIG. 36; for transfection of CD3+ T cells in vivo, only cholesterol as structural lipid: FIG. 36 lanes 6 and 8, relative to positive control LNP (Compound X, β-sitosterol)
Method: In this Example, LNPs were made with various lipid components identified in the in vitro screens described in Example 17 and mice were administered the LNPs encapsulating a murine OX40L-encoding mRNA. The compositions shown below in Table 26 were tested in which the ratios of the components in each composition was 50% ionizable lipid, 10% phospholipid, 38.5% structural lipid and 1.5% PEG lipid.
Mice were treated intravenously with a single injection at a dose concentration of 0.1 mg/ml and at a dose level of 0.5 mg/kg. PBS was used as a negative control.

CCCCCCCCCCCCCCCCCC(=O)OCC(COP(=O)([O-])OCC[N+]1(C)CCOCC1)OC(=O)CCCCCCCCCCCCCCCCC (stereo not drawn) [Compound H-409]
immune cell delivery potentiating ability in T cells, helper lipid panel (T cells [1]): exhibited immune cell delivery potentiating ability in T cells | immune cell delivery potentiating ability in monocytes, helper lipid panel (monocytes): exhibited immune cell delivery potentiating ability in monocytes | immune cell delivery potentiating ability in T cells, helper lipid panel (T cells [2]; phospholipid component, FIG. 45): exhibited immune cell delivery potentiating ability in T cells

CCCCCCCCCOC(=O)CCCCCCCN(CCCCCCCC(=O)OC(CCCCCCCC)CCCCCCCC)CCCNS(C)(=O)=O [Compound I-109]
immune cell delivery potentiating ability in T cells, amino lipid panel (T cells [1]): exhibited immune cell delivery potentiating ability in T cells | immune cell delivery potentiating ability in monocytes, amino lipid panel (monocytes): exhibited immune cell delivery potentiating ability in monocytes

CCCCCCCCCCC(=O)CCCCCCCN(CCCCCCCC(=O)OC(CCCCCCCC)CCCCCCCC)CCCNC(=S)N(C)C [Compound I-111]
immune cell delivery potentiating ability in T cells, amino lipid panel (T cells [1]): exhibited immune cell delivery potentiating ability in T cells | immune cell delivery potentiating ability in monocytes, amino lipid panel (monocytes): exhibited immune cell delivery potentiating ability in monocytes

CCCCCCCCCOC(=O)CCCCCCCN(CCCCCCCC(=O)OC(CCCCCCCC)CCCCCCCC)CCCNC(=O)OC [Compound I-181]
immune cell delivery potentiating ability in T cells, amino lipid panel (T cells [1]): exhibited immune cell delivery potentiating ability in T cells | immune cell delivery potentiating ability in monocytes, amino lipid panel (monocytes): exhibited immune cell delivery potentiating ability in monocytes | immune cell delivery potentiating ability in T cells, amino lipid panel (T cells [2]): exhibited immune cell delivery potentiating ability in T cells

CCCCCCCCCOC(=O)CCCCCCCN(CCCCCCCC(=O)OC(CCCCCCCC)CCCCCCCC)CCCNc1c(NC)c(=O)c1=O [Compound I-182, Heptadecan-9-yl 8-((3-((2-(methylamino)-3,4-dioxocyclobut-1-en-1-yl)amino)propyl)(8-(nonyloxy)-8-oxooctyl)amino)octanoate]
immune cell delivery potentiating ability in T cells, amino lipid panel (T cells [1]): exhibited immune cell delivery potentiating ability in T cells | immune cell delivery potentiating ability in monocytes, amino lipid panel (monocytes): exhibited immune cell delivery potentiating ability in monocytes | immune cell delivery potentiating ability in T cells, amino lipid panel (T cells [2]): exhibited immune cell delivery potentiating ability in T cells

CCCCCCCCC(CC)OC(=O)CCCCCCCN(CCCCCCCC(=O)OC(CCCCCCCC)CCCCCCCC)CCCNc1c(NC)c(=O)c1=O (stereo not drawn) [Compound I-301, Heptadecan-9-yl 8-((3-((2-(methylamino)-3,4-dioxocyclobut-1-en-1-yl)amino)propyl)(8-oxo-8-(undecan-3-yloxy)octyl)amino)octanoate]
immune cell delivery potentiating ability in T cells, amino lipid panel (T cells [1]): exhibited immune cell delivery potentiating ability in T cells | capability to transfect splenic CD3+ T cells in vivo (splenic CD3+ T cells): even higher capability to transfect splenic CD3+ T cells in vivo than the positive control LNP containing Compound X | immune cell delivery potentiating ability in T cells, amino lipid panel (T cells [2]): exhibited immune cell delivery potentiating ability in T cells

CCCCCCCCC(CCCCCCCC)OC(=O)CCCCCCCN(CCCCCCCC(=O)OCC(C)CCCCCCC)CCCNc1c(NC)c(=O)c1=O (stereo not drawn) [Compound I-321]
delivery and uptake by T cells, only cholesterol as structural lipid (T cells [1]): effective at potentiating delivery and uptake by T cells | immune cell delivery potentiating ability in T cells, amino lipid panel (T cells [1]): exhibited immune cell delivery potentiating ability in T cells | transfection of CD3+ T cells in vivo, only cholesterol as structural lipid (splenic CD3+ T cells): effective at potentiating transfecting CD3+ T cells in vivo | capability to transfect splenic CD3+ T cells in vivo (splenic CD3+ T cells): even higher capability to transfect splenic CD3+ T cells in vivo than the positive control LNP containing Compound X | immune cell delivery potentiating ability in T cells, amino lipid panel (T cells [2]): exhibited immune cell delivery potentiating ability in T cells

CCCCCCCCCOC(=O)CCCCCCCN(CCCCCCCOC(=O)C(CCCCCCCC)CCCCCCCC)CCCNc1c(NC)c(=O)c1=O [Compound I-326]
delivery and uptake by T cells, only cholesterol as structural lipid (T cells [1]): effective at potentiating delivery and uptake by T cells | immune cell delivery potentiating ability in T cells, amino lipid panel (T cells [1]): exhibited immune cell delivery potentiating ability in T cells | transfection of CD3+ T cells in vivo, only cholesterol as structural lipid (splenic CD3+ T cells): effective at potentiating transfecting CD3+ T cells in vivo | capability to transfect splenic CD3+ T cells in vivo (splenic CD3+ T cells): even higher capability to transfect splenic CD3+ T cells in vivo than the positive control LNP containing Compound X | immune cell delivery potentiating ability in T cells, amino lipid panel (T cells [2]): exhibited immune cell delivery potentiating ability in T cells

CCCCCCCCCCCCCC(=O)OCC(COP(=O)(O)OCCN)OC(=O)CCCCCCCCCCCCC (stereo not drawn) [DMPE]
immune cell delivery potentiating ability in T cells, helper lipid panel (T cells [1]): exhibited immune cell delivery potentiating ability in T cells | immune cell delivery potentiating ability in monocytes, helper lipid panel (monocytes): exhibited immune cell delivery potentiating ability in monocytes

CCCCCCCC/C=C\CCCCCCCC(=O)OC[C@H](COP(=O)([O-])OCC[N+](C)(C)C)OC(=O)CCCCCCC/C=C\CCCCCCCC [DOPC, 1,2-dioleoyl-sn-glycero-3-phosphocholine, reference compound]
immune cell delivery potentiating ability in monocytes, helper lipid panel (monocytes): exhibited immune cell delivery potentiating ability in monocytes

CC(C)[C@H](C)CC[C@@H](C)[C@H]1CC[C@H]2[C@@H]3CC=C4C[C@@H](O)CC[C@]4(C)[C@H]3CC[C@]12C [camposterol]
immune cell delivery potentiating ability in T cells, sterol panel (T cells [1]): exhibited immune cell delivery potentiating ability in T cells | immune cell delivery potentiating ability in monocytes, sterol panel (monocytes): exhibited immune cell delivery potentiating ability in monocytes

CC[C@H](/C=C/[C@@H](C)[C@H]1CC[C@H]2[C@@H]3CC=C4C[C@@H](O)CC[C@]4(C)[C@H]3CC[C@]12C)C(C)C [stigmasterol, reference compound]
immune cell delivery potentiating ability in monocytes, sterol panel (monocytes): exhibited immune cell delivery potentiating ability in monocytes

CC[C@H](CC[C@@H](C)[C@H]1CC[C@H]2[C@@H]3CC[C@H]4C[C@@H](O)CC[C@]4(C)[C@H]3CC[C@]12C)C(C)C [β-sitostanol]
immune cell delivery potentiating ability in T cells, sterol panel (T cells [1]): exhibited immune cell delivery potentiating ability in T cells | immune cell delivery potentiating ability in monocytes, sterol panel (monocytes): exhibited immune cell delivery potentiating ability in monocytes

CC[C@H](CC[C@@H](C)[C@H]1CC[C@H]2[C@@H]3CC=C4C[C@@H](O)CC[C@]4(C)[C@H]3CC[C@]12C)C(C)C [β-sitosterol, beta-sitosterol, reference compound]
immune cell delivery potentiating ability in T cells, sterol panel (T cells [1]): exhibited immune cell delivery potentiating ability in T cells | immune cell delivery potentiating ability in monocytes, sterol panel (monocytes): exhibited immune cell delivery potentiating ability in monocytes
